# Data reported in patent US11028087B2, “2,6-disubstituted-9-cyclopentyl-9H-purines, use thereof as medicaments, and pharmaceutical compositions” (UNIVERZITA PALACKEHO V OLOMOUCI, priority 2017, dated 2021).
# Like-named read-outs stand apart in the source and are kept apart here.
# Assays:
# [1] = test system: EOL-1 (eosinophilic leukaemia, carrying the fusion FIP1L1-PDGFRA); experiment: Calcein AM cytotoxicity assay; type: cell-based; conditions: Homo sapiens, EOL1, 72 h; EOL-1; Calcein AM, three days; read-out: EC50 values (μM) EOL-1
# How it was run: (§1)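 Cells were seeded in 96-well plates and treated next day with compounds at various concentrations in triplicate for three days at 37 °C, 5% CO2. Viability read as calcein fluorescence after 1 h with Calcein AM at 1 μg/ml final.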
# [2] = test system: K562; experiment: Calcein AM cytotoxicity assay; type: cell-based; conditions: Homo sapiens, 72 h; K562; Calcein AM, three days; read-out: EC50 values (μM) K562
# How it was run: as §1
# [3] = test system: MCF-7; experiment: Calcein AM cytotoxicity assay; type: cell-based; conditions: Homo sapiens, MCF7, 72 h; MCF-7; Calcein AM, three days; read-out: EC50 values (μM) MCF-7
# How it was run: as §1
# [4] = test system: MOLM-13 (acute myeloid leukemia, FLT3-ITD positive); experiment: Calcein AM cytotoxicity assay; type: cell-based; conditions: Homo sapiens, 72 h; MOLM-13; Calcein AM, three days; read-out: EC50 values (μM) MOLM-13
# How it was run: as §1
# [5] = test system: MV4-11 (acute myeloid leukemia, FLT3-ITD positive); experiment: Calcein AM cytotoxicity assay; type: cell-based; conditions: Homo sapiens, 72 h; MV4-11; Calcein AM, three days after drug addition; read-out: EC50 values (μM) MV4-11
# How it was run: as §1
# [6] = test system: THP-1 (acute myeloid leukemia, wt FLT3); experiment: Calcein AM cytotoxicity assay; type: cell-based; conditions: Homo sapiens, 72 h; THP-1; Calcein AM, three days; read-out: EC50 values (μM) THP-1
# How it was run: as §1
# [7] = test system: U937 (monocytic leukemia, wt FLT3); experiment: Calcein AM cytotoxicity assay; type: cell-based; conditions: Homo sapiens, U-937, 72 h; U937; Calcein AM, three days; read-out: EC50 values (μM) U937
# How it was run: as §1
# [8] = target: T1, CDK2/Cyclin E (Homo sapiens, UniProt P24941); experiment: Kinase inhibition assay with [γ-33P]ATP; type: biochemical; conditions: histone H1, 15 μM ATP; read-out: IC50 values (μM) CDK2
# T1 construct: made in house; host or cells: Sf9 insect cells, baculoviral infection
# How it was run: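 Human CDK2/Cyclin E, expressed in baculovirus-infected Sf9 insect cells and purified on a NiNTA column, was assayed with 1 mg/mL histone H1 substrate, 15 μM ATP plus 0.05 μCi [γ-33P]ATP and test compound in 10 μL of buffer (60 mM HEPES-NaOH pH 7.5, 3 mM MgCl2, 3 mM MnCl2, 3 μM Na-orthovanadate, 1.2 mM DTT, PEG20,000). Reactions were quenched with 5 μL 3% H3PO4, spotted onto P-81 phosphocellulose, washed and dried.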
# [9] = target: T2, FLT3-ITD (Homo sapiens, UniProt P36888); experiment: Kinase inhibition assay with [γ-33P]ATP; type: biochemical
# T2 sequence (P36888 1-993): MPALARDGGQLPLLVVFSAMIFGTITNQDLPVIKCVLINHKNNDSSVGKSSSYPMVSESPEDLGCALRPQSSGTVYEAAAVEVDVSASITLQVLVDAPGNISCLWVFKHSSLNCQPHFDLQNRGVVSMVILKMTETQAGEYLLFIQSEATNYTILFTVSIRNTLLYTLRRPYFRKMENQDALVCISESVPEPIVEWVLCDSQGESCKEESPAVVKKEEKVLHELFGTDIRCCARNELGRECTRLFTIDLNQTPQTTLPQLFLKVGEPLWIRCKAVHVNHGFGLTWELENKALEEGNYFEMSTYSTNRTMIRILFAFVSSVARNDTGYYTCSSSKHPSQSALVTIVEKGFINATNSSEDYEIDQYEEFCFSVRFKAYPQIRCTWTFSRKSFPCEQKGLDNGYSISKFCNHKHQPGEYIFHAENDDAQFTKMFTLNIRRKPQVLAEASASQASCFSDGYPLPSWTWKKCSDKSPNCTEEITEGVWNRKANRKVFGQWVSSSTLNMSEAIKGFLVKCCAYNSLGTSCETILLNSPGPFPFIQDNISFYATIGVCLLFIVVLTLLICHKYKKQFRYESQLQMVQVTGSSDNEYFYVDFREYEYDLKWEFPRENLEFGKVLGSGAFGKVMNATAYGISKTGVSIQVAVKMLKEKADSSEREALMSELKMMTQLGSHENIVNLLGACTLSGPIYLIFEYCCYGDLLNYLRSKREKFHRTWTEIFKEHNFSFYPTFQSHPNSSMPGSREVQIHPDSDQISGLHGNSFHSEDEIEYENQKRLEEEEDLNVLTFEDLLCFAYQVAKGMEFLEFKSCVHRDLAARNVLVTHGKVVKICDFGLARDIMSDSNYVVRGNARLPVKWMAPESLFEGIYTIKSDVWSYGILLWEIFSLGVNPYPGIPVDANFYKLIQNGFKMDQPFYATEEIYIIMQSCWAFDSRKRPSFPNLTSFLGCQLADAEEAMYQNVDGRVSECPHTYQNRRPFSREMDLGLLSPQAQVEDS
# How it was run: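 Radiometric [γ-33P]ATP assay in HEPES pH 7.5 with Mg2+/Mn2+: CDK1/Cyclin B (Sf9-expressed) and purchased CDK5/p35 with 1 mg/mL histone H1 at 15 and 0.15 μM ATP respectively; FLT3 WT and FLT3-ITD with AGLT substrate at 1 μM ATP. Reactions stopped with H3PO4, spotted onto phosphocellulose and washed.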
# [10] = AGLT substrate, 1 μM ATP, read-out: IC50 values (μM) FLT3 ITD
IC50 [8],"IC50 [9, 10]",SMILES,EC50 [1],EC50 [2],EC50 [3],EC50 [4],EC50 [5],EC50 [6],EC50 [7],"IC50 ([9]; comparative example, read-out: Influence of compounds on protein kinase inhibition, IC50 values (μM) FLT3 ITD)"
0.017 µM,0.002 µM,NC1CCC(Nc2nc(Nc3ccc(N4CCOCC4)cc3)c3ncn(C4CCCC4)c3n2)CC1 (stereo not shown) [Compound 1],0.008 µM,1.19 µM,0.32 µM,0.004 µM,0.001 µM,1.01 µM,2.13 µM,
0.008 µM,0.004 µM,NC1CCC(Nc2nc(Nc3ccc(CN4CCNCC4)cc3)c3ncn(C4CCCC4)c3n2)CC1 (stereo not shown) [Compound 2],0.023 µM,1.57 µM,0.52 µM,0.015 µM,0.01 µM,2.28 µM,1.8 µM,
0.004 µM,0.007 µM,CN1CCN(C(=O)c2ccc(Nc3nc(NC4CCC(N)CC4)nc4c3ncn4C3CCCC3)cc2)CC1 (stereo not shown) [Compound 3],0.015 µM,1.23 µM,0.273 µM,0.02 µM,0.018 µM,3.02 µM,3.66 µM,
0.006 µM,0.005 µM,CN1CC2(C1)CN(c1ccc(Nc3nc(NC4CCC(O)CC4)nc4c3ncn4C3CCCC3)cc1)C2 (stereo not shown) [Compound 7],,,,,,,,
0.004 µM,0.004 µM,NCCNc1nc(Nc2ccc(CN3CCNCC3)cc2)c2ncn(C3CCCC3)c2n1 [Compound 14],0.054 µM,1.56 µM,1.52 µM,0.025 µM,0.083 µM,1.86 µM,1.45 µM,
0.002 µM,0.002 µM,CN1CCN(C(=O)c2ccc(Nc3nc(NCCCCN)nc4c3ncn4C3CCCC3)cc2)CC1 [Compound 27],0.053 µM,0.57 µM,0.265 µM,0.019 µM,0.024 µM,0.624 µM,0.794 µM,
0.028 µM,0.003 µM,NCCCCNc1nc(Nc2ccc(N3CC4(COC4)C3)nc2)c2ncn(C3CCCC3)c2n1 [Compound 28],0.013 µM,1.05 µM,0.925 µM,0.004 µM,0.001 µM,0.514 µM,0.605 µM,
0.016 µM,0.003 µM,CN(C)CCNc1nc(Nc2ccc(CN3CCOCC3)nc2)c2ncn(C3CCCC3)c2n1 [Compound 172],0.014 µM,1.16 µM,0.43 µM,0.017 µM,0.003 µM,1.52 µM,1.48 µM,
0.04 µM,0.012 µM,CN(C)CCCNc1nc(Nc2ccc(C(=O)N3CCOCC3)nc2)c2ncn(C3CCCC3)c2n1 [Compound 179],0.225 µM,,2.21 µM,0.078 µM,0.013 µM,> 4 µM,,
0.031 µM,0.003 µM,NC1CCC(Nc2nc(Nc3ccc(N4CCCC4)cc3)c3ncn(C4CCCC4)c3n2)CC1 (stereo not shown) [Compound 263],0.03 µM,1.27 µM,1.33 µM,0.024 µM,0.018 µM,3.11 µM,3.17 µM,
0.642 µM,0.004 µM,NCCCCNc1nc(Nc2ccc(N3CCOCC3)cc2)c2ncn(C3CCCC3)c2n1 [Compound 265],0.039 µM,3.74 µM,3.25 µM,0.016 µM,0.017 µM,> 4 µM,> 4 µM,
0.586 µM,0.002 µM,CCN1CCN(c2ccc(Nc3nc(NCCCCN)nc4c3ncn4C3CCCC3)cc2)CC1 [Compound 266],0.074 µM,1.43 µM,2.15 µM,0.014 µM,0.018 µM,2.99 µM,3.77 µM,
0.025 µM,,NC1CCC(Nc2nc(Nc3ccc(N4CC5(COC5)C4)cc3)c3ncn(C4CCCC4)c3n2)CC1 (stereo not shown) [Compound 272],0.022 µM,1.18 µM,1.05 µM,0.004 µM,0.003 µM,0.693 µM,0.638 µM,

SMILES,IC50 [8],"IC50 [9, 10]",EC50 [1],EC50 [2],EC50 [3],EC50 [4],EC50 [5],EC50 [6],EC50 [7],"IC50 ([9]; comparative example, read-out: Influence of compounds on protein kinase inhibition, IC50 values (μM) FLT3 ITD)"
NC1CCC(Nc2nc(Nc3ccc(CN4CCOCC4)cc3)c3ncn(C4CCCC4)c3n2)CC1 (stereo not shown) [Compound 264],0.007 µM,0.001 µM,,,,,,,,0.001 µM
NCCCCNc1nc(Nc2ccc(CN3CCOCC3)cc2)c2ncn(C3CCCC3)c2n1 [Compound 270],0.625 µM,0.002 µM,,1.81 µM,2.1 µM,0.014 µM,0.029 µM,1.24 µM,> 4 µM,
